In experiment [1] the target is recombinant human S1P1 receptor (Homo sapiens, UniProt P21453). Put plainly: GTPγS assay to determine EC50 values. The experiment is classed as biochemical. The procedure: GTPγS Assay to Determine EC50 Values
The pH is 7.4. Test compounds are dissolved and diluted in 100% DMSO and pre-incubated at room temperature for 30 min in 150 μl of the above assay buffer, in the absence of ^35S-GTPγS. After addition of 50 μl of ^35S-GTPγS, the assay is incubated for 1 h at rt. […] Membrane-bound ^35S-GTPγS is measured with a TopCount from Packard Biosciences.
Specific binding is determined by subtracting non-specific binding from maximal binding. Maximal binding is the amount of cpm bound to the Multiscreen plate in the presence of 10 μM of S1P. Non-specific binding is the amount of binding in the absence of an agonist in the assay.

The test system of experiment [2] is circulating lymphocytes. Put plainly: Assessment of in vivo efficacy: circulating lymphocytes after oral administration. Set-up: species or system rat. Particulars: 6 h after oral administration of 10 mg/kg, normotensive male Wistar rats, compared to vehicle-treated group. The procedure:
Assessment of In Vivo Efficacy
The efficacy of the compounds of Formula (I) is assessed by measuring the circulating lymphocytes after oral administration of 3 to 30 mg/kg of a compound of Formula (I) to normotensive male Wistar rats. The animals are housed in climate-controlled conditions with a 12 h-light/dark cycle, and have free access to normal rat chow and drinking water. Blood is collected before and 3, 6 and 24 h after drug administration. Full blood is subjected to hematology using Advia Hematology system (Bayer Diagnostics, Zürich, Switzerland).
All data are presented as mean±SEM. Statistical analyses are performed by analysis of variance (ANOVA) using Statistica (StatSoft) and the Student-Newman-Keuls procedure for multiple comparisons. The null hypothesis is rejected when p<0.05.

The mark [3] stands for this setting: 35S-GTPγS binding, membrane preparations of CHO cells expressing recombinant human S1P1 receptor, read-out: EC50.
[4] abbreviates: 35S-GTPγS binding, membranes of CHO cells expressing human S1P1, read-out: EC50.

pEC50: −log10 of the molar value. Like-named read-outs stand apart in the source and are kept apart here.

recombinant human S1P1 receptor, sequence (P21453 whole entry): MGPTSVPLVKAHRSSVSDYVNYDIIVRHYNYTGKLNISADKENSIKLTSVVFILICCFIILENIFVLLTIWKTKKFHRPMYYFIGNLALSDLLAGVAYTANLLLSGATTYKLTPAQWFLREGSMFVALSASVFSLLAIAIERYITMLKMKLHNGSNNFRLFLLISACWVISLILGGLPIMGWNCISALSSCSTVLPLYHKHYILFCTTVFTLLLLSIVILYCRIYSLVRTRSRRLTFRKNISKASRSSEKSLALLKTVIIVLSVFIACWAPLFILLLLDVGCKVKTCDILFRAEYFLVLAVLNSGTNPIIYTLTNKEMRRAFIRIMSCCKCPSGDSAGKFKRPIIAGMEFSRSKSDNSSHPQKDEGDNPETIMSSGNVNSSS

Broadly, the pEC50 is −log10 of the EC50, conventionally taken in molar units. Turning to `CCc1cc(-c2noc(-c3cnc(N(C)CC)c(C)c3)n2)cc(C)c1OC[C@H](O)CNC(=O)CO` [Example 6, N-[(R)-3-(2-Ethyl-4-{5-[6-(ethyl-methyl-amino)-5-methyl-pyridin-3-yl]-[1,2,4]oxadiazol-3-yl}-6-methyl-phenoxy)-2-hydroxy-propyl]-2-hydroxy-acetamide], the pEC50 in experiment [1] (setting [3]) is 8.52.
`CCc1cc(-c2noc(-c3cnc(N(CC)CC)c(C)c3)n2)cc(C)c1OC[C@@H](O)CNC(=O)CO` [Example 8, N-((S)-3-{-4-[5-(6-Diethylamino-5-methyl-pyridin-3-yl)-[1,2,4]oxadiazol-3-yl]-2-ethyl-6-methyl-phenoxy}-2-hydroxy-propyl)-2-hydroxy-acetamide]: the Lymphocyte counts in experiment [2] is −66%.
Turning to `CCc1cc(-c2noc(-c3cnc(N(C)C(C)C)c(C)c3)n2)cc(C)c1OC[C@@H](O)CNC(=O)CO` [Example 15, N-[(S)-3-(2-Ethyl-4-{5-[6-(isopropyl-methyl-amino)-5-methyl-pyridin-3-yl]-[1,2,4]oxadiazol-3-yl}-6-methyl-phenoxy)-2-hydroxy-propyl]-2-hydroxy-acetamide], the pEC50 in experiment [1] (setting [3]) is 7.70.
`CCc1cc(-c2noc(-c3cnc(N4CCCC4)c(C)c3)n2)cc(C)c1OC[C@H](O)CN` [Example 18]: the negative logarithm of the EC50 (pEC50) in experiment [1] (setting [4]) is below 5.00.
For `CCc1cc(-c2noc(-c3cnc(N4CCCC4)c(C)c3)n2)cc(C)c1OC[C@@H](O)CN` [Example 19], in experiment [1] (setting [4]), the negative logarithm of the EC50 (pEC50) was below 5.00.
For the compound `CCc1cc(-c2nc(-c3cc(C)c(OC[C@@H](O)CO)c(CC)c3)no2)cnc1N(CC)CC` [Example 24, (S)-3-{4-[5-(6-Diethylamino-5-ethyl-pyridin-3-yl)-[1,2,4]oxadiazol-3-yl]-2-ethyl-6-methyl-phenoxy}-propane-1,2-diol], the negative logarithm of the EC50 (pEC50) in experiment [1] (setting [3]) is 7.92.
Take `CCc1cc(-c2nc(-c3cc(C)c(OC[C@H](O)CNC(=O)CO)c(CC)c3)no2)cnc1N(CC)CC` [Example 27, N-((R)-3-{4-[5-(6-Diethylamino-5-ethyl-pyridin-3-yl)-[1,2,4]oxadiazol-3-yl]-2-ethyl-6-methyl-phenoxy}-2-hydroxy-propyl)-2-hydroxy-acetamide]: the Lymphocyte counts in experiment [2] was −55%.
For `CCc1cc(-c2nc(-c3cc(C)c(OC[C@@H](O)CNC(=O)CO)c(CC)c3)no2)cnc1N(CC)CC` [Example 28, N-((S)-3-{4-[5-(6-Diethylamino-5-ethyl-pyridin-3-yl)-[1,2,4]oxadiazol-3-yl]-2-ethyl-6-methyl-phenoxy}-2-hydroxy-propyl)-2-hydroxy-acetamide], the Lymphocyte counts in experiment [2] was −56%.
Consider `CCc1cc(-c2nc(-c3cc(C)c(OC[C@@H](O)CO)c(CC)c3)no2)cnc1N(C)C(C)C` [Example 31, (S)-3-(2-Ethyl-4-{5-[5-ethyl-6-(isopropyl-methyl-amino)-pyridin-3-yl]-[1,2,4]oxadiazol-3-yl}-6-methyl-phenoxy)-propane-1,2-diol], for which the pEC50 in experiment [1] (setting [3]) was 7.77.
Regarding `CCc1cc(-c2nc(-c3cc(C)c(OC[C@H](O)CNC(=O)CO)c(CC)c3)no2)cnc1N(C)C(C)C` [Example 34, N-[(R)-3-(2-Ethyl-4-{5-[5-ethyl-6-(isopropyl-methyl-amino)-pyridin-3-yl]-[1,2,4]oxadiazol-3-yl}-6-methyl-phenoxy)-2-hydroxy-propyl]-2-hydroxy-acetamide], the pEC50 in experiment [1] (setting [3]) is 8.52.
For `CCc1cc(-c2nc(-c3cc(C)c(CCC(=O)NCC(=O)O)c(CC)c3)no2)cnc1N(CC)CC` [Example 44, (3-{4-[5-(6-Diethylamino-5-ethyl-pyridin-3-yl)-[1,2,4]oxadiazol-3-yl]-2-ethyl-6-methyl-phenyl}-propionylamino)-acetic acid], the pEC50 in experiment [1] (setting [3]) is 8.40.
For `CCc1cc(-c2nc(-c3cc(C)c(CCC(=O)NCCO)c(CC)c3)no2)cnc1N(C)C(C)C` [Example 46, 3-(2-Ethyl-4-{5-[5-ethyl-6-(isopropyl-methyl-amino)-pyridin-3-yl]-[1,2,4]oxadiazol-3-yl}-6-methyl-phenyl)-N-(2-hydroxy-ethyl)-propionamide], the pEC50 in experiment [1] is 8.30.
In the case of `CCc1cc(-c2nc(-c3cc(C)c(OC[C@@H](O)CNC(=O)CO)c(CC)c3)no2)cnc1N1CCCC1` [Example 54, N-((S)-3-{2-Ethyl-4-[5-(5-ethyl-6-pyrrolidin-1-yl-pyridin-3-yl)-[1,2,4]oxadiazol-3-yl]-6-methyl-phenoxy}-2-hydroxy-propyl)-2-hydroxy-acetamide], the Lymphocyte counts in experiment [2] was −57%.
As to `CCN(CC)c1ncc(-c2nc(-c3cc(C)c(OC[C@@H](O)CNC(=O)CO)c(C)c3)no2)cc1C` [Example 55, N-((S)-3-{4-[5-(6-Diethylamino-5-methyl-pyridin-3-yl)-[1,2,4]oxadiazol-3-yl]-2,6-dimethyl-phenoxy}-2-hydroxy-propyl)-2-hydroxy-acetamide], the pEC50 in experiment [1] (setting [3]) was 9.05.
In the case of `CCN(CC)c1ncc(-c2nc(-c3cc(C)c(OC[C@@H](O)CNC(=O)CO)c(Cl)c3)no2)cc1C` [Example 56, N-((S)-3-{2-Chloro-4-[5-(6-diethylamino-5-methyl-pyridin-3-yl)-[1,2,4]oxadiazol-3-yl]-6-methyl-phenoxy}-2-hydroxy-propyl)-2-hydroxy-acetamide], the pEC50 in experiment [1] (setting [3]) is 8.89.
For the compound `CCN(CC)c1ncc(-c2nc(-c3ccc(OC[C@@H](O)CNC(=O)CO)cc3C)no2)cc1C` [Example 58, N-((S)-3-{4-[5-(6-Diethylamino-5-methyl-pyridin-3-yl)-[1,2,4]oxadiazol-3-yl]-3-methyl-phenoxy}-2-hydroxy-propyl)-2-hydroxy-acetamide], the negative logarithm of the EC50 (pEC50) in experiment [1] (setting [3]) was 7.85.
Take `CCN(CC)c1ncc(-c2nc(-c3cc(C)c(OC[C@@H](O)CO)c(Cl)c3)no2)cc1C` [Example 63, (S)-3-{2-Chloro-4-[5-(6-diethylamino-5-methyl-pyridin-3-yl)-[1,2,4]oxadiazol-3-yl]-6-methyl-phenoxy}-propane-1,2-diol]: in experiment [1] (setting [3]), the pEC50 was 8.28.
With `CCN(CC)c1ncc(-c2nc(-c3cc(Cl)c(OC[C@@H](O)CO)c(OC)c3)no2)cc1C` [Example 64, (S)-3-{2-Chloro-4-[5-(6-diethylamino-5-methyl-pyridin-3-yl)-[1,2,4]oxadiazol-3-yl]-6-methoxy-phenoxy}-propane-1,2-diol], in experiment [1] (setting [3]), the pEC50 was 8.05.
Turning to `CCc1cc(-c2nnc(-c3cnc(N(CC)CC)c(C)c3)o2)cc(C)c1OC[C@@H](O)CNC(=O)CO` [Example 68, N-((2S)-3-{4-[5-(6-Diethylamino-5-methyl-pyridin-3-yl)-[1,3,4]oxadiazol-2-yl]-2-ethyl-6-methyl-phenoxy}-2-hydroxy-propyl)-2-hydroxy-acetamide], the pEC50 in experiment [1] (setting [3]) was 7.67.

For the origin of these results see patent US20110028448A1, “PYRIDINE COMPOUNDS” (priority 2008, published 2011).
